Experimental data published in paper PMC8571282 (Nature Communications, 2021).
Several values for one entry are separate records, joined by “and”; a condition that tells them apart may be missing. Identical values can stand only once. Like-named read-outs stand apart in the source and are kept apart here.

Tests used:
[1] = assay type: in vivo, ferret (Mustela putorius furo); details: b.i.d.; for Bodyweight, Mean 2 (treated group) / Bodyweight, Mean Diff. (Vehicle vs. treated): Fig 3e; for Temperature, Mean 2 (treated group) / Temperature, Mean Diff. (Vehicle vs. treated): Fig 3d
[2] = in vitro; details: African green monkey, % cell viability, 72 h
[3] = in vitro; details: hamster, % cell viability, 72 h
[4] = in vitro; details: human, % cell viability, 72 h
[5] = system: HEp-2 cells; assay: Cytotoxicity assay (PrestoBlue), HEp-2; details: for % cell viability: 72 h
[6] = system: BHK-21 cells; assay: Cytotoxicity assay (PrestoBlue), BHK-21; details: 72 h
[7] = system: “F2” primary HAE cells; assay: Cytotoxicity assay (PrestoBlue), “F2” HAE; details: 72 h; for % cell viability: F2 HAE
[8] = GS-441524 and metabolite concentrations in ferret lung tissue; details: single 30 mg/kg oral GS-621763, 24 h

For CC(C)C(=O)OCC1OC(C#N)(c2ccc3c(N)ncnn23)C(OC(=O)C(C)C)C1OC(=O)C(C)C (centres unmarked) [GS-621763], the “Bodyweight, Mean 2 (treated group)” value ([1]; Row 2 (time), 3 mg/kg) was 98.83, the “Bodyweight, Mean Diff. (Vehicle vs. treated)” value ([1]; Row 2 (time), 3 mg/kg) was 1.898 and the “Bodyweight, Mean 2 (treated group)” value ([1]; Row 2 (time), 10 mg/kg) was 104.7. The “Bodyweight, Mean Diff. (Vehicle vs. treated)” value ([1]; Row 2 (time), 10 mg/kg) was -3.948, the “Bodyweight, Mean 2 (treated group)” value ([1]; Row 3 (time), 3 mg/kg) was 102.4 and the “Bodyweight, Mean Diff. (Vehicle vs. treated)” value ([1]; Row 3 (time), 3 mg/kg) was -1.11. For the same compound, the “Bodyweight, Mean 2 (treated group)” value ([1]; Row 3 (time), 10 mg/kg) was 103.7, the “Bodyweight, Mean Diff. (Vehicle vs. treated)” value ([1]; Row 3 (time), 10 mg/kg) was -2.374 and the “Bodyweight, Mean 2 (treated group)” value ([1]; Row 4 (time), 3 mg/kg) was 104.1. For the same compound, the “Bodyweight, Mean Diff. (Vehicle vs. treated)” value ([1]; Row 4 (time), 3 mg/kg) was -1.927, the “Bodyweight, Mean 2 (treated group)” value ([1]; Row 4 (time), 10 mg/kg) was 106.9 and the “Bodyweight, Mean Diff. (Vehicle vs. treated)” value ([1]; Row 4 (time), 10 mg/kg) was -4.724. The “Bodyweight, Mean 2 (treated group)” value ([1]; Row 5 (time), 3 mg/kg) was 105.2, the “Bodyweight, Mean Diff. (Vehicle vs. treated)” value ([1]; Row 5 (time), 3 mg/kg) was -2.7 and the “Bodyweight, Mean 2 (treated group)” value ([1]; Row 5 (time), 10 mg/kg) was 107.9. The “Bodyweight, Mean Diff. (Vehicle vs. treated)” value ([1]; Row 5 (time), 10 mg/kg) was -5.412, the “Temperature, Mean 2 (treated group)” value ([1]; Row 1 (time), 3 mg/kg) was 38.95 and the “Temperature, Mean Diff. (Vehicle vs. treated)” value ([1]; Row 1 (time), 3 mg/kg) was 0.2. The “Temperature, Mean 2 (treated group)” value ([1]; Row 1 (time), 10 mg/kg) was 38.53, the “Temperature, Mean Diff. (Vehicle vs. treated)” value ([1]; Row 1 (time), 10 mg/kg) was 0.625 and the “Temperature, Mean 2 (treated group)” value ([1]; Row 2 (time), 3 mg/kg) was 38.75. For the same compound, the “Temperature, Mean Diff. (Vehicle vs. treated)” value ([1]; Row 2 (time), 3 mg/kg) was -0.075, the “Temperature, Mean 2 (treated group)” value ([1]; Row 2 (time), 10 mg/kg) was 39.03 and the “Temperature, Mean Diff. (Vehicle vs. treated)” value ([1]; Row 2 (time), 10 mg/kg) was -0.35. The “Temperature, Mean 2 (treated group)” value ([1]; Row 3 (time), 3 mg/kg) was 38.78, the “Temperature, Mean Diff. (Vehicle vs. treated)” value ([1]; Row 3 (time), 3 mg/kg) was -0.1 and the “Temperature, Mean 2 (treated group)” value ([1]; Row 3 (time), 10 mg/kg) was 38.85. The “Temperature, Mean Diff. (Vehicle vs. treated)” value ([1]; Row 3 (time), 10 mg/kg) was -0.175, the “Temperature, Mean 2 (treated group)” value ([1]; Row 4 (time), 3 mg/kg) was 38.93 and the “Temperature, Mean Diff. (Vehicle vs. treated)” value ([1]; Row 4 (time), 3 mg/kg) was -0.275. For the same compound, the “Temperature, Mean 2 (treated group)” value ([1]; Row 4 (time), 10 mg/kg) was 38.73, the “Temperature, Mean Diff. (Vehicle vs. treated)” value ([1]; Row 4 (time), 10 mg/kg) was -0.075 and the “Temperature, Mean 2 (treated group)” value ([1]; Row 5 (time), 3 mg/kg) was 38.73. For the same compound, the “Temperature, Mean Diff. (Vehicle vs. treated)” value ([1]; Row 5 (time), 3 mg/kg) was -0.15, the “Temperature, Mean 2 (treated group)” value ([1]; Row 5 (time), 10 mg/kg) was 38.2 and the “Temperature, Mean Diff. (Vehicle vs. treated)” value ([1]; Row 5 (time), 10 mg/kg) was 0.375. It also gave a viability at 72 h, 1.235 µM ([2]; VeroE6, 1.235 µM) of 87%, a viability at 72 h, 3.704 µM ([2]; VeroE6, 3.704 µM) of 87% and a viability at 72 h, 33.333 µM ([2]; VeroE6, 33.333 µM) of 101%. For the same compound, the viability at 72 h, 0.046 µM ([3]; BHK-21, 0.046 µM) was 89%, the viability at 72 h, 1.235 µM ([3]; BHK-21, 1.235 µM) was 89% and the viability at 72 h, 33.333 µM ([3]; BHK-21, 33.333 µM) was 103%. It also gave a viability at 72 h, 1.235 µM ([4]; HCT-8, 1.235 µM) of 115%, a viability at 72 h, 3.704 µM ([4]; HCT-8, 3.704 µM) of 114% and a viability at 72 h, 33.333 µM ([4]; HCT-8, 33.333 µM) of 106%. The “% cell viability” value ([5]; HEp-2, 0.046 µM, 0.046 µM) was 67% and 49%, the “% cell viability” value ([5]; HEp-2, 3.704 µM, 3.704 µM) was 107% and 97% and the CC50 ([5]; HEp-2, 72 h) was 79.4 µM. For the same compound, the “% cell viability” value ([6]; BHK-21, 0.046 µM, 0.046 µM) was 79%, the “% cell viability” value ([6]; BHK-21, 1.235 µM, 1.235 µM) was 92% and the “% cell viability” value ([6]; BHK-21, 3.704 µM, 3.704 µM) was 96% and 93%. For the same compound, the “% cell viability” value ([6]; BHK-21, 33.333 µM, 33.333 µM) was 95%, the “% cell viability” value ([6]; BHK-21, 100 µM, 100 µM) was 84% and the “% cell viability” value ([7]; 0.046 µM) was 84% and 81%. For the same compound, the “% cell viability” value ([7]; 1.235 µM) was 109%, the “% cell viability” value ([7]; 3.704 µM) was 109% and the “% cell viability” value ([7]; 33.333 µM) was 87% and 80%. The CC50 ([7]; “F2” HAE) was 43.8 µM and the “GS-443902 levels in respiratory tissues trailing those of intravenous 10 mg/kg remdesivir” value [8] was “approximately fourfold”.
